Measured values reported in PMC10539361, “Allosteric modulation of the fish taste receptor type 1 (T1R) family by the extracellular chloride ion” (Scientific Reports, 2023).

Target: T1, zfT1R2a/zfT1R3 (Danio rerio, UniProt A0A8M1N8F9+Q2MHK9)
T1 sequence (A0A8M1N8F9 26-825): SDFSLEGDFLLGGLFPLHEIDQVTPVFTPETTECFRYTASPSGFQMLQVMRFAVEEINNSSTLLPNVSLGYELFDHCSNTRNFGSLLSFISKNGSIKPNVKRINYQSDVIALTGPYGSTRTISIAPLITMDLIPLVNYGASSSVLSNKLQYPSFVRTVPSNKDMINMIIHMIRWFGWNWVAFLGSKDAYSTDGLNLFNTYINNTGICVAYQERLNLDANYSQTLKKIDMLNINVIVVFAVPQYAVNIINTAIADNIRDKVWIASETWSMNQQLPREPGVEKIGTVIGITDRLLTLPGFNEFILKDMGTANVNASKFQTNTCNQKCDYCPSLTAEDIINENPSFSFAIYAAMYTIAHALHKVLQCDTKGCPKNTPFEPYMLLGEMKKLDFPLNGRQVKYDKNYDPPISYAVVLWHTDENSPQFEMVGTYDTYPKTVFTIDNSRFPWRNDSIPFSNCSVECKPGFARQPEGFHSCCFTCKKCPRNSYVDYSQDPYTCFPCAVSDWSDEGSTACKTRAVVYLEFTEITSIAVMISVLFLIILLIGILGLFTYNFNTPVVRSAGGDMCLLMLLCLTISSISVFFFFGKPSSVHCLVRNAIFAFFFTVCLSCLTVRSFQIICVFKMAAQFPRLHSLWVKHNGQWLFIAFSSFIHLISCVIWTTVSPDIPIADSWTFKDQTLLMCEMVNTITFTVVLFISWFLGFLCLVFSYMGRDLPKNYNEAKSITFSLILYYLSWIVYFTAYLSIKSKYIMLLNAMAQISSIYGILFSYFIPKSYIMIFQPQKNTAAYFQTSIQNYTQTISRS
T1 sequence (Q2MHK9 25-850): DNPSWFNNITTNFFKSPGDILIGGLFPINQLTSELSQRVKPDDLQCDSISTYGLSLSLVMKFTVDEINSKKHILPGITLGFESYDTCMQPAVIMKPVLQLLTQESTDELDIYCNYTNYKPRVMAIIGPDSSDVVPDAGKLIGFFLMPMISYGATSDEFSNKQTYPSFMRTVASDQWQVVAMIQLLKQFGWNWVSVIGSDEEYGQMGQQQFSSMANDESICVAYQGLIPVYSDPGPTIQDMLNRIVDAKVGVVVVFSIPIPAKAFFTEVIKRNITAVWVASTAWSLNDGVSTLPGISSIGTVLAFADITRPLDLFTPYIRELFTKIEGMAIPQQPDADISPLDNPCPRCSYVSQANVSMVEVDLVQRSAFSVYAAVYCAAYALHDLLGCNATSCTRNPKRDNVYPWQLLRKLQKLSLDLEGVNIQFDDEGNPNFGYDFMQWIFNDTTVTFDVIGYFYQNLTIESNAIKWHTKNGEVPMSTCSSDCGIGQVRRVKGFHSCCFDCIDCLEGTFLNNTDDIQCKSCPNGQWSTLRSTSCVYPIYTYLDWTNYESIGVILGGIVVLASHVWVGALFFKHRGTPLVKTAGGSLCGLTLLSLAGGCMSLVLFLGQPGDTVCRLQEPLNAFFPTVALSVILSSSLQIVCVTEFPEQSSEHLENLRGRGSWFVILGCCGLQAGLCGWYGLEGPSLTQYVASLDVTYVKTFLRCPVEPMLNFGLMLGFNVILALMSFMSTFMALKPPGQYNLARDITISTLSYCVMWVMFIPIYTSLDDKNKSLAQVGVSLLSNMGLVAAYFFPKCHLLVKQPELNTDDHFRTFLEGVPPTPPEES
Assay: Effect of anions, cations and osmotic pressure on cellular responses, cells in 10 mM Cl- buffer, zfT1R2a/zfT1R3
Type: cell-based, zebrafish
Conditions: for response to fixed concentration of L-Pro on coapplication: coapplied with 160 µM L-Pro, final [Cl-]o up to 60 mM
Procedure: Cells were seeded in 96-well plates coated with ε-poly-L-lysine at approximately 70,000 cells per well. […] Fluorescence changes were monitored at 2 s intervals, as described above. […] Three independent experiments were conducted for each receptor, and representative results are shown as the mean ± SEM (n = 3 replicates). Statistical tests were conducted using KyPlot version 6.0 (KyensLab Inc., Tokyo, Japan). Statistical significance was set at p < 0.05.

| Structure (SMILES) | response to fixed concentration of L-Pro on coapplication | cellular response to the salt alone (without agonist) |
| --- | --- | --- |
| O=C([O-])[C@H](O)[C@@H](O)[C@H](O)[C@H](O)CO.[Na+] [Na-gluconate, sodium gluconate] | did not enhance | – |
| [Cl-].[Na+] [NaCl] | enhanced | did not elicit |
